The target in series [1] is XPNPEP1 (Homo sapiens (Human), UniProt Q9NQW7). Nature of the series: XPNPEP1 substrate assay (H-Lys(abz)-Pro-Pro-pNA). Type of series: biochemical. Particulars: for IC50: XPNPEP1 3.5 nM, substrate 100 μM, 60 mins. The protocol:
Protein purification. Human prolidase (PEPD) was generated and purified. XPNPEP1 in pET15-b containing a 6× His tag was expressed in E. coli Rosetta DE3 cells. Cells were induced with IPTG for 16 h at 37° C., pelleted and lysed in buffer A (20 mM Tris-HCl (pH 7.9), 500 mM NaCl, and 10% (v/v) glycerol) by sonication. Affinity purification chromatography was performed using TALON resin and according to previously published protocols (Li et al., 2008).
(§1) Substrate assays. For the PEPD assay, a solution of substrate (Ala-Pro) was prepared in DMSO. 24 μL of 50 nM recombinant human PEPD were added to a 384-well, black, clear-bottom plate (Corning) with 1 μL dipeptide Ala-Pro (final conc. 40 μM). Alanine liberated was measured as increasing fluorescence signal (Resorufin, Ex/Em: 535/587 nm) recorded at 25° C. using an L-alanine assay kit (Abcam, ab83394) at 25° C. according to manufacturer's instructions. For the AMC reporter assays, experiments were performed with cell lysates. 5 μL solution of substrate (2.5 mM Ala-AMC) was added the mixture of 10 μL HEK293T cell lysates (2.5 mg/ml) and 10 μL of indicated compounds in a 384-well, black, clear-bottom plate (Corning) to initiate the reaction. Substrate cleavage was measured as increasing fluorescence signal (Ex/Em: 380/460 nm) recorded at 25° C. for 20 mins. For XPNPEP1 enzymes (XPNPEP1 3.5 nM) were plated on a black 384-well clear bottom plate and treated with the indicated doses of compounds. H-Lys(abz)-Pro-Pro-pNA substrate was added to a final concentration of 100 μM, and fluorescence was monitored (Ex/Em: 320/410) for 60 mins.

Series [2] deals with MV4;11 CASP1-/- cells. Nature of the series: CellTiter-Glo cell viability, CASP1-/- MV4;11 cells. It is filed as cell-based. Particulars: 24 h, CTG; for CASP1-independent cell death: WT and CASP1-/- MV4;11 cells. The protocol:
Cloning. CASP1^−/− MV4;11 cells^12; CARD8^−/− MV4;11, THP-1, OCI-AML2 cells^14; DPP8/9^−/− THP-1^12; PEPD^−/−, XPNPEP1^−/−, PEPD XPNPEP1^−/− THP-1 cells were generated. Plasmids for CARD8 variants, CASP1, GSDMD, dTAG-CARD8^ZUC were cloned as described previously (Hollingsworth et al., 2021; Johnson et al., 2018; Sharif et al., 2021).
(§2) CellTiter-Glo cell viability and CytoTox-Fluor cell death assays. Cells were plated (2,000 cells per well) in white, 384-well clear-bottom plates (Corning) using an EL406 Microplate Washer/Dispenser (BioTek) in 25 μL final volume of medium. To the cell plates were added compounds at different concentrations using a pintool (CyBio) and the plates were allowed to incubate in the incubator. After incubation for indicated times, CytoTox-Fluor reagent (Promega, G9262) was added according to the manufacturer's protocol. The assay plates were then incubated for another 30 min before fluorescence was recorded using a Cytation 5 Cell Imaging Multi-Mode Reader (BioTek). Next, CellTiter-Glo reagent (Promega, G7573) was subsequently added to the assay plates following the manufacturer's protocol. Assay plates were shaken on an orbital shaker for 2 min and incubated at 25° C. for 10 min. Luminescence was then read using a Cytation 5 Cell Imaging Multi-Mode Reader (BioTek).

Series [3] addresses recombinant human PEPD (Homo sapiens (Human), UniProt P12955). Nature of the series: PEPD substrate assay (Ala-Pro cleavage, L-alanine assay kit). Type of series: biochemical. As to conditions: for IC50: 50 nM recombinant human PEPD, Ala-Pro 40 μM, 25° C. The protocol: Protein purification. Human prolidase (PEPD) was generated and purified. XPNPEP1 in pET15-b containing a 6× His tag was expressed in E. coli Rosetta DE3 cells.
as §1, with “Alanine liberated was measured as increasing fluorescence signal (Resorufin, Ex/Em: 535/587 nm) recorded at 25° C. using an L-alanine assay kit (Abcam, ab83394) at 25° C. according to manufacturer's instructions.” left out, “For XPNPEP1 enzymes (XPNPEP1 3.5 nM) were plated on a black 384-well clear bottom plate and treated with the indicated doses of compounds.” left out

Series [4] relates to MV4;11 WT cells. Nature of the series: CellTiter-Glo cell viability, WT MV4;11 cells. Type of series: cell-based. Particulars: for cytotoxicity to MV4;11 cells (in words) / IC50: 24 h, CTG. The protocol: as §2

The structures appear in SMILES notation.

Chain of recombinant human PEPD (P12955 whole entry): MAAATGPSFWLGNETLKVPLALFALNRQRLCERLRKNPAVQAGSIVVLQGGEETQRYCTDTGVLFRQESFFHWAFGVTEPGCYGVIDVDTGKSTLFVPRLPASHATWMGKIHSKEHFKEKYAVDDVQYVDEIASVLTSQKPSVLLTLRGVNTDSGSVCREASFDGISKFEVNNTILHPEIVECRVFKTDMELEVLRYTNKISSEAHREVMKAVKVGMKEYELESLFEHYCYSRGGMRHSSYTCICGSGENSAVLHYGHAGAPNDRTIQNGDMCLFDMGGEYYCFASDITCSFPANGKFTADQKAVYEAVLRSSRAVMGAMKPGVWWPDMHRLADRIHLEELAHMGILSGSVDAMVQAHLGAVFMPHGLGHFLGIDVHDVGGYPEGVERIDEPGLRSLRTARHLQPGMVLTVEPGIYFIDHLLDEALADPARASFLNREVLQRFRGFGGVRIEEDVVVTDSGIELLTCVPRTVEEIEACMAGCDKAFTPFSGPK
Chain of XPNPEP1 (Q9NQW7 whole entry): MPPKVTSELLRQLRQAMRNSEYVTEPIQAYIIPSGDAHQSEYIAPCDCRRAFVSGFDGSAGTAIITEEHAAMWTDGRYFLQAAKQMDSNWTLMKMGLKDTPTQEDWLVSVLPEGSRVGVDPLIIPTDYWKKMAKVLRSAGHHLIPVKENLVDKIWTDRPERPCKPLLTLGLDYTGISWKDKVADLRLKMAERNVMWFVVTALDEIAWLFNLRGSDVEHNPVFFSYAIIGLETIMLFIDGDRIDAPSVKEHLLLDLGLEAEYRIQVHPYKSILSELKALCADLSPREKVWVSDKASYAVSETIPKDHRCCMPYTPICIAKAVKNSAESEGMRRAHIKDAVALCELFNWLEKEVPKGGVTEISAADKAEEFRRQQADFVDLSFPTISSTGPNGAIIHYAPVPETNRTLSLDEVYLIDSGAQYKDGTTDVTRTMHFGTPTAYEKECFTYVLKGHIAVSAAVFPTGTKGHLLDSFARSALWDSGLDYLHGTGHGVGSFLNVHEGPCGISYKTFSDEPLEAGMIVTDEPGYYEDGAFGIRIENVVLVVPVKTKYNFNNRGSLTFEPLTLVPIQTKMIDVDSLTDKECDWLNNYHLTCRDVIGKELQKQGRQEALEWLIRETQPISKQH

As to `COC(=O)[C@H](CC(C)C)NC(=O)[C@@H](O)[C@H](N)CC(C)C` [CQ52, Methyl ((2S,3R)-3-amino-2-hydroxy-5-methylhexanoyl)-L-leucinate], in series [1], the “XPNPEP1 inhibition (in words)” value was “very weak PEPD and XPNPEP1 inhibitors”; inhibition was half-maximal at 57 µM (IC50). In series [2], the CASP1-independent cell death result is reported as “triggered CASP1-independent cell death”. In series [3], the “PEPD inhibition (in words)” value is “very weak PEPD and XPNPEP1 inhibitors”; the IC50 turned out to be 51 µM.

Turning to `CC(C)CCNC(=O)[C@@H]1CCCN1C(=O)[C@@H](O)[C@H](N)CC(C)C` [CQ95, (S)-1-((2S,3R)-3-amino-2-hydroxy-5-methylhexanoyl)-N-isopentylpyrrolidine-2-carboxamide], the “overall activity (PEPD/XPNPEP1 inhibition and cytotoxicity, Table 6 and FIG. 2), in words” value in series [4] is “retained similar PEPD/XPNPEP1 inhibition and cytotoxicity as CQ31”. In addition, the IC50 was found to be 140 µM in series [1] and 0.29 µM in series [3].

For the compound `COC(=O)[C@@H]1CCCN1C(=O)[C@@H](O)[C@H](N)C12CC3CC(CC(C3)C1)C2` [CQ47, Methyl ((2S,3R)-3-(adamantan-1-yl)-3-amino-2-hydroxypropanoyl)-L-prolinate], the “cytotoxicity to MV4;11 cells (in words)” value in series [4] was “almost completely inactive”. Also, the IC50 was 33 µM in series [1] and 12 µM in series [3].

As to `COC(=O)[C@@H]1CCCN1C(=O)[C@@H](O)[C@H](N)C1CC1` [CQ62, Methyl ((2S,3R)-3-amino-3-cyclopropyl-2-hydroxypropanoyl)-L-prolinate], the “cytotoxicity to MV4;11 cells (in words)” value in series [4] is “almost completely inactive”. Moreover, the values for the 50% inhibitory concentration (IC50) in series [1] and in series [3] were 66 µM and 4.2 µM, respectively.

With `COC(=O)[C@H](Cc1ccccc1)NC(=O)[C@@H](O)[C@H](N)CC(C)C` [CQ72, Methyl ((2S,3R)-3-amino-2-hydroxy-5-methylhexanoyl)-L-phenylalaninate], in series [1], the “XPNPEP1 inhibition (in words)” value was “very weak PEPD and XPNPEP1 inhibitors”; the half-maximal inhibitory concentration (IC50) came to 96 µM. Further, the CASP1-independent cell death result in series [2] is reported as “triggered CASP1-independent cell death”. For the same compound, in series [3], the “PEPD inhibition (in words)” value is “very weak PEPD and XPNPEP1 inhibitors”; the IC50 is greater than 100 µM.

For the compound `CC(C)C[C@@H](N)[C@H](O)C(=O)N1CCC[C@H]1c1nnn[nH]1` [CQ99, (2S,3R)-1-((S)-2-(1H-tetrazol-5-yl)pyrrolidin-1-yl)-3-amino-2-hydroxy-5-methylhexan-1-one], the “cytotoxicity to MV4;11 cells (in words)” value in series [4] was “inactive in cells”. Also, the concentration for half-maximal inhibition (IC50) in series [1] is 67 µM; in series [3], 6.2 µM.

As to `C[C@H](NC(=O)[C@@H]1CCCN1C(=O)[C@@H]1CCCN1C(=O)[C@@H](O)[C@H](N)Cc1ccccc1)C(N)=O` [Apstatin, apstatin, reference compound], the concentration for half-maximal inhibition (IC50) was greater than 20 µM in series [4], 18 µM in series [1] and greater than 20 µM in series [2]. In addition, the “cytotoxicity to MV4;11 cells (in words)” value in series [4] is given as “not cytotoxic at all”.

On to `CONC(=O)[C@@H]1CCCN1C(=O)[C@@H](O)[C@H](N)CC(C)C` [CQ55, (S)-1-((2S,3R)-3-amino-2-hydroxy-5-methylhexanoyl)-N-methoxypyrrolidine-2-carboxamide], for which the “cytotoxicity to MV4;11 cells (in words)” value in series [4] was “inactive in cells”. Also, the 50% inhibitory concentration (IC50) in series [1] is 303 µM; in series [3], 1.6 µM.

Turning to `CC[C@H](C)[C@H](NC(=O)[C@@H]1CCCN1C(=O)[C@@H](O)[C@H](N)CC(C)C)C(=O)OC` [CQ81, Methyl ((2S,3R)-3-amino-2-hydroxy-5-methylhexanoyl)-L-prolyl-L-isoleucinate], the IC50 is 0.6 µM in series [4] (Homo sapiens, MV4-11); 23 µM in series [1]; greater than 20 µM in series [2] (Homo sapiens, MV4-11); 0.84 µM in series [3].

As for `COC(=O)[C@@H]1C[C@H](O)CN1C(=O)[C@@H](O)[C@H](N)CC(C)C` [CQ39, Methyl (2S,4S)-1-((2S,3R)-3-amino-2-hydroxy-5-methylhexanoyl)-4-hydroxypyrrolidine-2-carboxylate], in series [4], the “overall activity (PEPD/XPNPEP1 inhibition and cytotoxicity, Table 6 and FIG. 2), in words” value was “completely inactive”. In addition, the IC50 was 190 µM in series [1] and greater than 100 µM in series [3].

As to `CC(C)C[C@@H](N)[C@H](O)C(=O)N1CCC[C@H]1C(=O)OC1CCCC1` [CQ94, Cyclopentyl ((2S,3R)-3-amino-2-hydroxy-5-methylhexanoyl)-L-prolinate], in series [4], the “cytotoxicity to MV4;11 cells (in words)” value was “slightly more toxic”. In series [1], the “XPNPEP1 inhibition (in words)” value was “inhibited PEPD and XPNPEP1 inhibitors similarly”. Moreover, the “PEPD inhibition (in words)” value in series [3] is “inhibited PEPD and XPNPEP1 inhibitors similarly”.

As to `COC(=O)[C@@H]1CCCN1C(=O)[C@@H](O)[C@H](N)CCCCO` [CQ75], the “cytotoxicity to MV4;11 cells (in words)” value in series [4] was “lost cytotoxicity”. Further, the IC50 in series [1] stood at 115 µM; in series [3] it was 0.3 µM. Further, the “PEPD inhibition (in words)” value in series [3] is “retained PEPD inhibition”.

Regarding `COC(=O)[C@H](C)NC(=O)[C@@H]1CCCN1C(=O)[C@@H]1CCCN1C(=O)[C@@H](O)[C@H](N)CC(C)C` [CQ50, Methyl ((2S,3R)-3-amino-2-hydroxy-5-methylhexanoyl)-L-prolyl-L-prolyl-L-alaninate], the IC50 in series [4] (Homo sapiens, MV4-11) is 35 µM; in series [1] it was 8.1 µM; in series [2] (Homo sapiens, MV4-11) it was greater than 100 µM; in series [3] it was 11 µM.

For the compound `CC(C)C[C@@H](N)[C@H](O)C(=O)N1CCC[C@H]1CNS(C)(=O)=O` [CQ53, N—(((S)-1-((2S,3R)-3-amino-2-hydroxy-5-methylhexanoyl)pyrrolidin-2-yl)methyl)methanesulfon-amide], the “cytotoxicity to MV4;11 cells (in words)” value in series [4] was “inactive in cells”. Also, the half-maximal inhibitory concentration (IC50) in series [1] is 12 µM; in series [3] it was greater than 100 µM.

Take `CC(C)C[C@@H](N)[C@H](O)C(=O)N1CCC[C@H]1C(N)=O` [CQ49, (S)-1-((2S,3R)-3-amino-2-hydroxy-5-methylhexanoyl)pyrrolidine-2-carboxamide]: in series [4], the “overall activity (PEPD/XPNPEP1 inhibition and cytotoxicity, Table 6 and FIG. 2), in words” value is “retained similar PEPD/XPNPEP1 inhibition and cytotoxicity as CQ31”. The values for the concentration for half-maximal inhibition (IC50) in series [1] and in series [3] were 53 µM and 0.28 µM, respectively.

For `CC(C)C[C@@H](N)[C@H](O)C(=O)N1CCCC1` [CQ76, (2S,3R)-3-amino-2-hydroxy-5-methyl-1-(pyrrolidin-1-yl)hexan-1-one], the “overall activity (PEPD/XPNPEP1 inhibition and cytotoxicity, Table 6 and FIG. 2), in words” value in series [4] is on record as “abrogated all activity”. Moreover, the concentration for half-maximal inhibition (IC50) is 38 µM in series [1] and greater than 100 µM in series [3].

Turning to `COC(=O)[C@H](CC(C)C)NC(=O)[C@@H](O)[C@H](N)Cc1ccccc1` [MeBs, bestatin methyl ester, reference compound], the CASP1-independent cell death entry in series [2] is “CASP1-independent cell death”.

As to `COC(=O)[C@H](Cc1ccccc1)NC(=O)[C@@H]1CCCN1C(=O)[C@@H](O)[C@H](N)CC(C)C` [CQ79, Methyl ((2S,3R)-3-amino-2-hydroxy-5-methylhexanoyl)-L-prolyl-L-phenylalaninate], the half-maximal inhibitory concentration (IC50) in series [4] (Homo sapiens, MV4-11) is 0.66 µM; in series [1], 48 µM; in series [2] (Homo sapiens, MV4-11) it was greater than 20 µM; in series [3], 0.72 µM.

Source of the values: US20250368624A1, “M24B AMINOPEPTIDASE INHIBITORS FOR CARD8 INFLAMMASOME ACTIVATION” (Memorial Sloan-Kettering Cancer Center, priority 2022, published 2025).
